According to patent US20020122768A1, “Stable radiopharmaceutical compositions and methods for preparation thereof” (priority 2000, published 2002):
Marks after values point to notes of the source that are not given here.

Columns and labels:
Format in all cases: physicochemical
[1] = Solution stability of ^90Y-A at −78° C., RCP by radio-HPLC; conditions: for RCP (%) change: t = 0 h to 72 h
Experimental: (§1) The integrity of a radiopharmaceutical is measured by the radiochemical purity (RCP) of the radiolabeled compound using ITLC or more preferably HPLC. The advantage of using HPLC is that radio-impurities caused by radiolytic degradation can be separated from the radiopharmaceutical under optimized chromatographic conditions. […] The radiopharmaceutical compositions of this invention are effective in maintaining the long-term stability of samples that have been frozen, thawed, and re-tested periodically for 7 days.
(§2) The initial RCP of a radiopharmaceutical is largely dependent on radiolabeling conditions such as pH, heating temperature and time. Once a radiopharmaceutical is prepared in high yield, the stability of the radiopharmaceutical composition is measured by the` RCP change of the radiopharmaceutical over a certain period of time. For comparison purposes, sodium gentisate or sodium ascorbate was often used as the reference since they have been used in various radiopharmaceutical formulations.
Analytical Methods. HPLC method 1 used a HP-1100 HPLC system with a UV/visible detector (λ=220 nm), an IN-US radio-detector, and a Zorbax C18 column (4.6 mm×250 mm, 80 Å pore size). The flow rate was 1 mL/min with the mobile phase being isocratic from 0 to 18 min using 87% solvent A (0.025 M ammonium acetate buffer, pH 6.8) and 13% solvent B (acetonitrile), followed by an isocratic wash using 40% of solvent A and 60% solvent B from 19 to 25 min.
The ITLC method used Gelman Sciences silica-gel ITLC paper strips and 1:1 mixture of acetone and saline as eluant. By this method, the radiolabeled compounds migrate to the solvent front while [^90Y]/^177Lu]colloid and [^90Y]/^177Lu]acetate remain at the origin.
^90Y-A was prepared using the procedure described in example 4. The resulting solution was the kept in a dry-ice box (−78° C.) for 3 days. Samples were analyzed at t=0, 24, 48, and 72 h.
To a lead-shielded clean 5 mL vial containing 100 μg of COMPOUND A and 2 mg of 3,4,5-trihydroxybenzoic acid (3,4,5-THBA) dissolved in 0.5 mL of 0.5 M ammonium acetate buffer (pH=8.0) was added 20 μL Of ^90YCl3 solution (˜20 mCi) in 0.05 N HCl. The reaction mixture was heated at 100° C. for 5 min. After cooling to room temperature, 0.5 mL of 3,4,5-THBA solution (20 mg/mL) in 0.5 M ammonium acetate buffer (pH=8.0) was added to the solution above. A sample of the resulting mixture was then diluted 20-fold with GA solution (10 mg/mL, pH=7.4), and analyzed by HPLC (Method 1, injection volume=1 μL) and ITLC. […] The resulting mixture was kept at −78° C. for 3 days. Samples were analyzed at t=0, 1, 2, and 3 days.
(§3) Synthesis of ^90Y-A was carried out according to the procedure described in example 12. After cooling to room temperature, 0.5 mL of 2,3,4-THBA solution (20 mg/mL) in 0.5 M ammonium acetate buffer (pH=8.0) was added to the solution containing ^90Y-A. The resulting mixture was kept at -78 °C for 3 days. Samples were analyzed at t=0, 1, 2, and 3 days.
as §3, with “DSA” for “2,3,4-THBA”, “−78° C.” for “-78 °C”
as §3, with “mL of HABA solution (20” for “mL of 2,3,4-THBA solution (20”, “kept at −78° C. for 3” for “kept at -78 °C for 3”, “3 days. […]” for “3 days.”
To a lead-shielded clean 30 mL vial containing 1000 μg of COMPOUND A and 100 mg of sodium gentisate (GA) dissolved in 5 mL of 0.5 M ammonium acetate buffer (pH=7.5) was added ˜250 μL of ^90YCl3 solution (˜200 mCi) in 0.05 N HCl. The reaction mixture was heated at 100° C. for 15 min. […]

[2] = Solution stability of ^90Y-A at room temperature, RCP by radio-HPLC; conditions: room temperature; for RCP (%) t = 0 h / RCP (%) t = 24 h / RCP (%) t = 48 h / RCP (%) t = 120 h / RCP (%) t = 144 h / RCP (%) t = 72 h / RCP (%) t = 148 h: ^90Y-A (~20 mCi); for RCP (%) change: ^90Y-A, t = 0 h to last time point
Experimental: The advantage of using HPLC is that radio-impurities caused by radiolytic degradation can be separated from the radiopharmaceutical under optimized chromatographic conditions.
The initial RCP of a radiopharmaceutical is largely dependent on radiolabeling conditions such as pH, heating temperature and time. Once a radiopharmaceutical is prepared in high yield, the stability of the radiopharmaceutical composition is measured by the` RCP change of the radiopharmaceutical over a certain period of time.
Analytical Methods. HPLC method 1 used a HP-1100 HPLC system with a UV/visible detector (λ=220 nm), an IN-US radio-detector, and a Zorbax C18 column (4.6 mm×250 mm, 80 Å pore size).
The ITLC method used Gelman Sciences silica-gel ITLC paper strips and 1:1 mixture of acetone and saline as eluant.
(§4) The reaction mixture was heated at 100° C. for 10 min. A sample of the resulting solution was first diluted 20-fold with 2 mM DTPA solution (pH=5), and was then analyzed by HPLC (Method 1, injection volume=1-2 μL) and ITLC. […] The resulting solution was kept at room temperature for 6 days.
as §4, §4
The reaction mixture was heated at 100° C. for 10 min. A sample of the resulting solution was first diluted 20-fold with 2 mM DTPA solution (pH=5), and was then analyzed by HPLC (Method 1, injection volume 1-2 μL) and ITLC. […] The resulting solution was kept at room temperature for 7 days.
(§5) The reaction mixture was heated at 100° C. for 10 min. A sample of the resulting solution was first diluted 20-fold with 2 mM DTPA solution (pH=5), and was then analyzed by HPLC (Method 1, injection volume=1-2 μL) and ITLC. […] The resulting solution was kept at room temperature for 7 days.
as §5, §5

[3] = Solution stability of ^90Y-B at −78° C., RCP by radio-HPLC; conditions: ^90Y-B prepared with GA
Experimental: as §1, §2
HPLC method 2 used a HP-1100 HPLC system with a UV/visible detector (λ=220 nm), an IN-US radio-detector, and a Zorbax C18 column (4.6 mm×250 mm, 80 Å pore size). The flow rate was 1 mL/min with a gradient mobile phase starting from 92% solvent A (0.025 M ammonium acetate buffer, pH 6.8) and 8% solvent B (acetonitrile) at 0 min to 90% solvent A and 10% solvent B at 18 min, followed by an isocratic wash using 40% of solvent A and 60% solvent B from 19 to 25 min.
The ITLC method used Gelman Sciences silica-gel ITLC paper strips and 1:1 mixture of acetone and saline as eluant. By this method, the radiolabeled compounds migrate to the solvent front while [^90Y]/^177Lu]colloid and [^90Y]/^177Lu]acetate remain at the origin. […]
The 0.5 M ammonium acetate buffer (pH 8.0) was first degassed under vacuum for 1-2 min. COMPOUND B and gentisic acid (sodium salt, GA) were dissolved in the degassed buffer to give a concentration of 100 μg/mL for COMPOUND B and 20 mg/mL for GA. The resulting solution was immediately degassed under vacuum for another 1-2 min. To a clean sealed 5 mL vial was added 1.0 mL of the degassed 0.5 M ammonium acetate buffer (pH 8.0) containing 100 μg COMPOUND B and 10 mg GA. The solution was degassed again under vacuum. Upon addition of ˜20 μL of ^90YCl3 solution (˜20 mCi) in 0.05 N HCl, the reaction mixture was heated at 100° C. for 5 min. After cooling to room temperature, a sample of the resulting solution was diluted 20-fold with saline containing gentisate (10 mg/mL), and was then analyzed by HPLC (Method 2, injection volume=1-2 μL) and ITLC. […] To the solution above was added 0.5 mL of sodium ascorbate solution (40 mg/mL in 0.5 M ammonium acetate buffer, pH=7.4). The resulting mixture was then kept in a dry-ice box (−78° C.) for 7 days. Samples were analyzed at t=0, 3 and 7 days.
The 0.5 M ammonium acetate buffer (pH 8.0) was first degassed under vacuum for 1-2 min. COMPOUND B and gentisic acid (sodium salt, GA) were dissolved in the degassed buffer to give a concentration of 100 μg/mL for COMPOUND B and 20 mg/mL for GA. The resulting solution was immediately degassed under vacuum for another 1-2 min. To a clean sealed 5 mL vial was added 1.0 mL of the degassed 0.5 M ammonium acetate buffer (pH 8.0) containing 100 μg COMPOUND B and 10 mg GA. The solution was degassed again under vacuum. Upon addition of ˜20 μL of ^90YCl3 solution (˜20 mCi) in 0.05 N HCl, the reaction mixture was heated at 100° C. for 5 min. After cooling to room temperature, a sample of the resulting solution was diluted 20-fold with saline containing gentisate (10 mg/mL), and was then analyzed by HPLC (Method 2, injection volume=1-2 μL) and ITLC. […] To the solution above was added 0.5 mL of 2,3,4-trihydroxybenzoic acid solution (20 mg/mL in 0.5 M ammonium acetate buffer, pH=6.5). The resulting mixture was then kept in a dry-ice box (−78° C.) for 7 days. Samples were analyzed at t=0, 3 and 7 days. […]

[4] = ^90Y-A, 10 mg stabilizer, dry-ice box (−78° C.)
[5] = ^90Y-A, 10 mg stabilizer, −78° C.
[6] = degassed, second stabilizer (20 mg AA, 20 mg DSA, 10 mg 2,3,4-THBA, 10 mg HABA) added post-labeling
[7] = ^90Y-A prepared using 2 mg 3,4,5-THBA, second stabilizer (0.5 mL of 20 mg/mL) added after radiolabeling, −78° C.

| SMILES | RCP (%) t = 0 h [1, 4] | RCP (%) t = 24 h [1, 4] | RCP (%) t = 48 h [1, 4] | RCP (%) t = 72 h [1, 4] | RCP (%) change [1, 5] | RCP (%) t = 0 h ([2]; 2 mg stabilizer) | RCP (%) t = 24 h ([2]; 2 mg stabilizer) | RCP (%) t = 48 h ([2]; 2 mg stabilizer) | RCP (%) t = 120 h ([2]; 2 mg stabilizer) | RCP (%) t = 144 h ([2]; 2 mg stabilizer) | RCP (%) t = 0 h ([2]; 10 mg stabilizer) | RCP (%) t = 24 h ([2]; 10 mg stabilizer) | RCP (%) t = 72 h ([2]; 10 mg stabilizer) | RCP (%) t = 148 h ([2]; 10 mg stabilizer) | RCP (%) change ([2]; 10 mg stabilizer) | also measured |
| --- | --- | --- | --- | --- | --- | --- | --- | --- | --- | --- | --- | --- | --- | --- | --- | --- |
| O=Cc1cc(O)c(O)c(O)c1 [3,4,5-THBAD, 3,4,5-trihydroxybenzaldehyde] | 88.2% | 86.4% | 87.3% | 87.4% | 0.8% | 95.5% | 92.8% | 87.4% | 84.9% | 80.7% | 88.1* % | 82.3% | 77.3% | 68.4% | 19.7% |  |
| O=C([O-])c1cc(O)ccc1O.[Na+] [GA, sodium gentisate, reference compound] | 96.4% | 96.7% | 95.4% | 94.6% | 1.8% | 94.6% | 84.5% | 80.7% | 71.2% | 69.7% | 96.3% | 92.6% | 83.8% | 77.3% | 19% |  |
| Nc1ccc(C(=O)O)cc1O [HABA, 3-hydroxy-4-aminobenzoic acid] |  |  |  |  |  |  |  |  |  |  |  |  |  |  |  | RCP (%) t = 0 [3, 6]: 94.8%; RCP (%) t = 3 days [3, 6]: 94.5%; RCP (%) t = 7 days [3, 6]: 94.0%; RCP (%) change ([3]; second stabilizer added post-labeling, t = 0 to 7 days): 0.8%; RCP (%) t = 0 h [1, 7]: 98.5%; RCP (%) t = 24 h [1, 7]: 98.3%; RCP (%) t = 48 h [1, 7]: 98.7%; RCP (%) t = 72 h [1, 7]: 98.1%; RCP (%) change ([1]; ^90Y-A prepared using 2 mg 3,4,5-THBA, second stabilizer added after radiolabeling, −78° C.): 0.4% |
